In brackets after ≈: the same amount, converted by molar mass. Counter-ions that a name gives are not always drawn.
What was measured:
[1] = system: Bacillus subtilis (ATCC43639); assay: Microtitre plate assay, IC90 determination; format: cell-based; details: 90% inhibitory concentration for bacterial growth, 37° C., resazurin fluorescence, read-out: IC90 (μg/ml) BSU 43639
Description: (§1) The bacteria used in this study were grown overnight in flasks containing 100 ml Mueller-Hinton Broth (Becton Dickinson—cat. no. 275730) in sterile de-ionized water, with shaking, at 37° C. Stocks (0.5 ml/tube) were stored at −70° C. until use. Bacteria titrations were performed in microtiter plates and colony forming units (CFUs) were determined. In general, an inoculum level of approximately 100 CFUs was used for susceptibility testing.
(§2) Anti Bacterial Susceptibility Testing: IC90 Determination
(§3) Flat-bottom, sterile 96-well plastic microtiter plates were filled with 180 μl of sterile deionized water, supplemented with 0.25% BSA. Subsequently, stock solutions (7.8×final test concentration) of compounds were added in 45 μl volumes in column 2 Serial five-fold dilutions (45 μl in 180 μl) were made directly in the microtiter plates from column 2 to reach column 11. Untreated control samples with (column 1) and without (column 12) inoculum were included in each microtiter plate. Depending on the bacteria type, approximately 10 to 60 CFU per well of bacteria inoculum (100 TCID50), in a volume of 100 μl in 2.8× Mueller-Hinton broth medium, was added to the rows A to H, except column 12. The same volume of broth medium without inoculum was added to column 12 in row A to H. The cultures were incubated at 37° C. for 24 hours under a normal atmosphere (incubator with open air valve and continuous ventilation). At the end of incubation, one day after inoculation, the bacterial growth was quantitated fluorometrically. Therefore resazurin (0.6 mg/ml) was added in a volume of 20 μl to all wells […], and the plates were re-incubated overnight. A change in colour from blue to pink indicated the growth of bacteria.
(§4) The fluorescence was read in a computer-controlled fluorometer (Cytofluor Biosearch) at an excitation wavelength of 530 nm and an emission wavelength of 590 nm. The % growth inhibition achieved by the compounds was calculated according to standard methods. The IC90 (expressed in μg/ml) was defined as the 90% inhibitory concentration for bacterial growth.

[2] = system: Listeria monocytogenes (ATCC49594); assay: Microtitre plate assay, IC90 determination; format: cell-based; details: 90% inhibitory concentration for bacterial growth, 37° C., resazurin fluorescence, read-out: IC90 (μg/ml) LMO 49594
Description: as §1, §2, §3, §4

[3] = system: Streptococcus pneumoniae (ATCC6305); assay: Microtitre plate assay, IC90 determination; format: cell-based; details: 90% inhibitory concentration for bacterial growth, 37° C., resazurin fluorescence, read-out: IC90 (μg/ml) SPN 6305
Description: as §1, §2, §3, §4

[4] = system: Streptococcus mutans (ATCC33402); assay: Microtitre plate assay, IC90 determination; format: cell-based; details: 90% inhibitory concentration for bacterial growth, 37° C., resazurin fluorescence, read-out: IC90 (μg/ml) SMU 33402
Description: as §1, §2, §3, §4

[5] = system: methicilline resistant Staphylococcus aureus (MRSA) (a clinical isolate from the University of Antwerp); assay: Microtitre plate assay, IC90 determination; format: cell-based; details: 90% inhibitory concentration for bacterial growth, 37° C., resazurin fluorescence, read-out: IC90 (μg/ml) STA RMETHIC
Description: as §1, §2, §3, §4

[6] = system: Streptococcus pyogens (ATCC8668); assay: Microtitre plate assay, IC90 determination; format: cell-based; details: 90% inhibitory concentration for bacterial growth, 37° C., resazurin fluorescence, read-out: IC90 (μg/ml) SPY 8668
Description: as §1, §2, §3, §4

[7] = system: Staphylococcus aureus (ATCC29213); assay: Microtitre plate assay, IC90 determination; format: cell-based; details: 90% inhibitory concentration for bacterial growth, 37° C., resazurin fluorescence, read-out: IC90 (μg/ml) STA 29213
Description: as §1, §2, §3, §4

[8] = system: Enterococcus faecalis (ATCC14506); assay: Microtitre plate assay, IC90 determination; format: cell-based; details: 90% inhibitory concentration for bacterial growth, 37° C., resazurin fluorescence, read-out: IC90 (μg/ml) EFA 14506
Description: as §1, §2, §3, §4

[9] = system: Pseudomonas aeruginosa (ATCC27853); assay: Microtitre plate assay, IC90 determination; format: cell-based; details: 90% inhibitory concentration for bacterial growth, 37° C., resazurin fluorescence, read-out: IC90 (μg/ml) PAE 27853
Description: as §1, §2, §3, §4

[10] = system: Staphylococcus aureus (ATCC25923); assay: Microtitre plate assay, IC90 determination; format: cell-based; details: 90% inhibitory concentration for bacterial growth, 37° C., resazurin fluorescence, read-out: IC90 (μg/ml) STA 25923
Description: as §1, §2, §3, §4

[11] = system: Enterococcus faecalis (ATCC29212); assay: Microtitre plate assay, IC90 determination; format: cell-based; details: 90% inhibitory concentration for bacterial growth, 37° C., resazurin fluorescence, read-out: IC90 (μg/ml) EFA 29212
Description: as §1, §2, §3, §4

Structure (SMILES)	melting point	IC90 [1]	IC90 [2]	IC90 [3]	IC90 [4]	IC90 [5]	IC90 [6]	IC90 [7]	IC90 [8]	IC90 [9]	IC90 [10]	IC90 [11]
CN(C)CCC(O)(c1cc(F)cc(F)c1)c1ccc2nc(-c3cccnc3)cc(-c3ccccc3)c2c1 (stereo not drawn) (as salt: salt) [Compound 42]	151 °C											
CN(C)CCC(O)(c1cc(F)cc(F)c1)c1cccc2nc(N(C)C)c(-c3ccccc3)cc12 (stereo not drawn) (as salt: salt) [Compound 45]	136 °C											
COc1nc2c(C(O)(CCN(C)C)c3cc(F)cc(F)c3)cc(-c3cccnc3)cc2cc1-c1ccccc1 (stereo not drawn) (as salt: salt) [Compound 64]	156 °C											
COc1nc2cccc(C(O)(CCN(C)C)c3cc(F)cc(F)c3)c2cc1-c1ccccc1 (stereo not drawn) [Compound 1]		11.3 µg/mL (≈ 25.2 µM)	11.3 µg/mL (≈ 25.2 µM)	11.3 µg/mL (≈ 25.2 µM)	9 µg/mL (≈ 20.1 µM)	11.3 µg/mL (≈ 25.2 µM)	9 µg/mL (≈ 20.1 µM)	11.3 µg/mL (≈ 25.2 µM)	11.3 µg/mL (≈ 25.2 µM)	11.3 µg/mL (≈ 25.2 µM)	11.3 µg/mL (≈ 25.2 µM)	11.3 µg/mL (≈ 25.2 µM)
CN(C)CCC(O)(Cc1c(-c2ccccc2)c(-c2ccccc2)nc2ccccc12)c1cc(F)cc(F)c1 (stereo not drawn) [Compound 21]	173 °C	12.8 µg/mL (≈ 25.2 µM)	12.8 µg/mL (≈ 25.2 µM)	12.8 µg/mL (≈ 25.2 µM)		12.8 µg/mL (≈ 25.2 µM)	12.8 µg/mL (≈ 25.2 µM)	12.8 µg/mL (≈ 25.2 µM)		12.8 µg/mL (≈ 25.2 µM)	12.8 µg/mL (≈ 25.2 µM)	12.8 µg/mL (≈ 25.2 µM)
CN(C)CCC(O)(c1cc(F)cc(F)c1)c1cc(Br)cc2cc(-c3ccccc3)c(-n3ccnc3)nc12 (stereo not drawn) [Compound 22]	136 °C		14.2 µg/mL (≈ 25.2 µM)	12.6 µg/mL (≈ 22.4 µM)	11.2 µg/mL (≈ 19.9 µM)	14.2 µg/mL (≈ 25.2 µM)	11.2 µg/mL (≈ 19.9 µM)	14.2 µg/mL (≈ 25.2 µM)		14.2 µg/mL (≈ 25.2 µM)	12.6 µg/mL (≈ 22.4 µM)	14.2 µg/mL (≈ 25.2 µM)
CN(C)CCC(O)(c1cccc2ccccc12)c1cc(Br)cc2cc(Cc3ccccc3)c(-n3ccnc3)nc12 (stereo not drawn) [Compound 24]		11.8 µg/mL (≈ 19.9 µM)	14.9 µg/mL (≈ 25.2 µM)	14.9 µg/mL (≈ 25.2 µM)	11.8 µg/mL (≈ 19.9 µM)	14.9 µg/mL (≈ 25.2 µM)	11.8 µg/mL (≈ 19.9 µM)	11.8 µg/mL (≈ 19.9 µM)	11.8 µg/mL (≈ 19.9 µM)	14.9 µg/mL (≈ 25.2 µM)	13.2 µg/mL (≈ 22.3 µM)	14.9 µg/mL (≈ 25.2 µM)
CN(C)CCC(O)(c1cccc2ccccc12)c1cc(Br)cc2cc(Cc3ccccc3)c(N3CCN(c4n[nH]c5ccccc45)CC3)nc12 (stereo not drawn) [Compound 26]		14.5 µg/mL (≈ 20 µM)	3.6 µg/mL (≈ 4.96 µM)	3.6 µg/mL (≈ 4.96 µM)	2.9 µg/mL (≈ 4 µM)	18.2 µg/mL (≈ 25.1 µM)	2.9 µg/mL (≈ 4 µM)	16.3 µg/mL (≈ 22.5 µM)	14.5 µg/mL (≈ 20 µM)	2.9 µg/mL (≈ 4 µM)	7.3 µg/mL (≈ 10.1 µM)	3.6 µg/mL (≈ 4.96 µM)
CN(C)CCC(O)(c1cccc2ccccc12)c1cc(Br)cc2cc(-c3ccccc3)c(-n3cncn3)nc12 (stereo not drawn) [Compound 33]		11.5 µg/mL (≈ 19.9 µM)	14.5 µg/mL (≈ 25.1 µM)	14.5 µg/mL (≈ 25.1 µM)	11.5 µg/mL (≈ 19.9 µM)	14.5 µg/mL (≈ 25.1 µM)	11.5 µg/mL (≈ 19.9 µM)	14.5 µg/mL (≈ 25.1 µM)	46 µg/mL (≈ 79.5 µM)	14.5 µg/mL (≈ 25.1 µM)	14.5 µg/mL (≈ 25.1 µM)	14.5 µg/mL (≈ 25.1 µM)
CN(C)CCC(O)(c1cc(F)cc(F)c1)c1cccc2nc(N(C)C)c(-c3ccccc3)cc12 (stereo not drawn) [Compound 45]		9.2 µg/mL (≈ 19.9 µM)	11.6 µg/mL (≈ 25.1 µM)	11.6 µg/mL (≈ 25.1 µM)	9.2 µg/mL (≈ 19.9 µM)	46.2 µg/mL (≈ 100 µM)	9.2 µg/mL (≈ 19.9 µM)	9.2 µg/mL (≈ 19.9 µM)	10.3 µg/mL (≈ 22.3 µM)	11.6 µg/mL (≈ 25.1 µM)	10.3 µg/mL (≈ 22.3 µM)	11.6 µg/mL (≈ 25.1 µM)
CN(C)CCC(O)(c1ccccc1)c1cc(Br)cc2cc(Cc3ccccc3)c(OCCN3CCCCC3)nc12 (stereo not drawn) [Compound 48]	131 °C	60.3 µg/mL (≈ 100 µM)	60.3 µg/mL (≈ 100 µM)	60.3 µg/mL (≈ 100 µM)	47.9 µg/mL (≈ 79.5 µM)	60.3 µg/mL (≈ 100 µM)	47.9 µg/mL (≈ 79.5 µM)	53.7 µg/mL (≈ 89.1 µM)		47.9 µg/mL (≈ 79.5 µM)	53.7 µg/mL (≈ 89.1 µM)	60.3 µg/mL (≈ 100 µM)
COc1nc2c(C(O)(CCN(C)C)c3cc(F)cc(F)c3)cc(-c3cccnc3)cc2cc1-c1ccccc1 (stereo not drawn) [Compound 64]		8.3 µg/mL (≈ 15.8 µM)	13.2 µg/mL (≈ 25.1 µM)	10.5 µg/mL (≈ 20 µM)	2.1 µg/mL (≈ 4 µM)	11.8 µg/mL (≈ 22.5 µM)	2.1 µg/mL (≈ 4 µM)	8.3 µg/mL (≈ 15.8 µM)	10.5 µg/mL (≈ 20 µM)	13.2 µg/mL (≈ 25.1 µM)	6.6 µg/mL (≈ 12.6 µM)	13.2 µg/mL (≈ 25.1 µM)
COc1nc2c(C(O)(CCN(C)C)c3ccccc3)cc(-c3cccnc3)cc2cc1Cc1ccccc1 (stereo not drawn) [Compound 66]	180 °C	50.4 µg/mL (≈ 100 µM)	50.4 µg/mL (≈ 100 µM)	50.4 µg/mL (≈ 100 µM)	40 µg/mL (≈ 79.4 µM)	50.4 µg/mL (≈ 100 µM)	40 µg/mL (≈ 79.4 µM)	40 µg/mL (≈ 79.4 µM)		40 µg/mL (≈ 79.4 µM)	50.4 µg/mL (≈ 100 µM)	50.4 µg/mL (≈ 100 µM)
CN(C)CCC(O)(c1cccc2ccccc12)c1cc(Br)cc2cc(-c3ccccc3)c(=O)[nH]c12 (stereo not drawn) [Compound 69]	190 °C	52.8 µg/mL (≈ 100 µM)	41.9 µg/mL (≈ 79.4 µM)	13.3 µg/mL (≈ 25.2 µM)		52.8 µg/mL (≈ 100 µM)	13.3 µg/mL (≈ 25.2 µM)	13.3 µg/mL (≈ 25.2 µM)		13.3 µg/mL (≈ 25.2 µM)	52.8 µg/mL (≈ 100 µM)	13.3 µg/mL (≈ 25.2 µM)
COc1nc2ccccc2c(CC(O)(CCN(C)C)c2cccc(F)c2)c1Cc1ccccc1 (stereo not drawn) [Compound 71]	123 °C	11.5 µg/mL (≈ 25.1 µM)	9.2 µg/mL (≈ 20.1 µM)	11.5 µg/mL (≈ 25.1 µM)	9.2 µg/mL (≈ 20.1 µM)	11.5 µg/mL (≈ 25.1 µM)	9.2 µg/mL (≈ 20.1 µM)	11.5 µg/mL (≈ 25.1 µM)		11.5 µg/mL (≈ 25.1 µM)	11.5 µg/mL (≈ 25.1 µM)	11.5 µg/mL (≈ 25.1 µM)

— US8017606B2, “Quinoline derivatives as antibacterial agents” (Janssen Pharmaceutica NV, priority 2005, dated 2011)
